# From patent US10633338B2, “Binding Function 3 (BF3) site compounds as therapeutics and methods for their use” (THE UNIVERSITY OF BRITISH COLUMBIA, priority 2014, dated 2020)
# Like-named read-outs stand apart in the source and are kept apart here.
# Tests used:
# androgen receptor (AR) = target: T1, androgen receptor (AR) (Homo sapiens, UniProt P10275, T878A); assay: eGFP cellular AR transcription assay; assay type: cell-based
# T1 construct: stably transfected eGFP-expressing LNCaP human prostate cancer cells (LN-ARR2PB-eGFP) containing an androgen responsive probasin-derived promoter; endogenous in cells; host or cells: LNCaP (LN-ARR2PB-eGFP)
# T1 sequence (P10275 1-920 T878A): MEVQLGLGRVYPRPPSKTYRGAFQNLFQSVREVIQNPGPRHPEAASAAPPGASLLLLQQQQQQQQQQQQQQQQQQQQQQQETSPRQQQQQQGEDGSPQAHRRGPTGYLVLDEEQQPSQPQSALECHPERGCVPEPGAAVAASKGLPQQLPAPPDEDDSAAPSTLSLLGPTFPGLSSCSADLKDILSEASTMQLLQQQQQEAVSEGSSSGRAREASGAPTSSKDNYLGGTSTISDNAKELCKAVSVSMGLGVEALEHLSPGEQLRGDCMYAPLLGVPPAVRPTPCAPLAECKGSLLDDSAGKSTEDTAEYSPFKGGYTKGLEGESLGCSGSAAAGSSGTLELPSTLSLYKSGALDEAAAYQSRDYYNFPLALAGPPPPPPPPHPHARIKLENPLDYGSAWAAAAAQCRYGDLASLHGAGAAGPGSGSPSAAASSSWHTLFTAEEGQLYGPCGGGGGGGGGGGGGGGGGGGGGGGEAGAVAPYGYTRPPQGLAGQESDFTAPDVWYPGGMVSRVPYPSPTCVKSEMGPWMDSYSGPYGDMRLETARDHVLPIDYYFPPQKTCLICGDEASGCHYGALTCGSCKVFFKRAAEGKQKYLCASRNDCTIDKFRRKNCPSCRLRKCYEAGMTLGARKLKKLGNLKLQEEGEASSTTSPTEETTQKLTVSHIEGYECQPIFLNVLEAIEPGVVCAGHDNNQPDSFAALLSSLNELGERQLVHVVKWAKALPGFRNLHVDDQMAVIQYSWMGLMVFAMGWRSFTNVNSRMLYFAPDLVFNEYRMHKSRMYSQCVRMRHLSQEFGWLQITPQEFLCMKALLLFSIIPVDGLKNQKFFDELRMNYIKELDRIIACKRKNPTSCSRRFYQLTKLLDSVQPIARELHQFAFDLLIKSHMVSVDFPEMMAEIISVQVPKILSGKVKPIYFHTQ
# Summary of the method: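 AR transcriptional activity is read as eGFP expression from a probasin-derived androgen-responsive promoter. Compound titrated 0-100 μM in the presence of 0.1 nM R1881; 35,000 cells/well.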
# PSA = assay: Prostate Surface Antigen (PSA) assay, PSA excreted into the media; assay type: cell-based, human; details: same plates as eGFP assay; for IC50: Homo sapiens, 72 h
# Method: The evaluation of PSA excreted into the media was performed in parallel to the eGFP assay using the same plates (see above description). After the cells were incubated for 3 days 150 μl of the media was taken from each well, and added to 150 μl of PBS.
# [1] = LN-ARR2PBeGFP LNCaP cells, 0.1 nM R1881, 3 days incubation
# [2] = PSA excreted into media, 3 days incubation
# [3] = LN-ARR2PB-eGFP LNCaP cells, 0.1 nM R1881, 3 days, 0-100 μM compound, read-out: IC50 (eGFP)
# [4] = media after 3 days, read-out: IC50 (PSA)
# [5] = LN-ARR2PBeGFP LNCaP cells, 0.1 nM R1881, 3 days incubation, read-out: eGFP IC50
# [6] = PSA excreted into media, 3 days incubation, read-out: PSA IC50
compound,measurement,setting,value
Cc1cc(Cl)c2[nH]ccc2c1 [Compound 13724],eGFP IC50,androgen receptor (AR); [1],Inactive
same,PSA IC50,PSA; [2],Inactive
Brc1cccc2c(-c3cnc4ccccc4c3)c[nH]c12 [13 653],IC50,androgen receptor (AR); [3],1130 nM
same,IC50,PSA; [4],290 nM
Fc1cccc2nc(-c3c[nH]c4ccccc34)ccc12 [Compound 13690],eGFP IC50,androgen receptor (AR); [1],Inactive
same,PSA IC50,PSA; [2],Inactive
Fc1ccc2c(-c3ccc4ccccc4n3)c[nH]c2c1 [13 576],IC50,androgen receptor (AR); [3],144 nM
same,IC50,PSA; [4],48 nM
Fc1ccc(F)c2c(-c3ccc4ccccc4n3)c[nH]c12 [Compound 13656],IC50,androgen receptor (AR); [5],990 nM
same,IC50,PSA; [6],460 nM
COc1ccc(/N=C/c2c[nH]c3ccccc23)cc1 [Compound 13300],IC50,androgen receptor (AR); [5],9300 nM
same,IC50,PSA; [6],6760 nM
Brc1cccc2c(-c3ccc4ccccc4n3)c[nH]c12 [13 582],IC50,androgen receptor (AR); [3],52 nM
same,IC50,PSA; [4],41 nM
Clc1cccc(/N=N/c2c[nH]c3ccccc23)c1 [Compound 13226],IC50,androgen receptor (AR); [5],110 nM
same,IC50,PSA; [6],76 nM
Cc1cccc2c(-c3nc4ccccc4s3)c[nH]c12 [Compound 13760],IC50,androgen receptor (AR); [5],100 nM
same,IC50,PSA; [6],52 nM
c1ccc2ncc(-c3c[nH]c4ccccc34)cc2c1 [Compound 13628],IC50,androgen receptor (AR); [5],800 nM
same,IC50,PSA; [6],610 nM
Cc1ccc(/N=N/c2c[nH]c3ccccc23)c(C)c1 [Compound 13423],IC50,androgen receptor (AR); [5],1100 nM
same,IC50,PSA; [6],1200 nM
Cc1cccc2c(-c3ccc(-c4ccccc4)cc3)c[nH]c12 [13 733],IC50,androgen receptor (AR); [3],3810 nM
same,IC50,PSA; [4],919 nM
Cc1cc(F)cc2c(-c3cnc4cccc(Cl)c4n3)c[nH]c12 [Compound 13705],eGFP IC50,androgen receptor (AR); [1],Inactive
same,PSA IC50,PSA; [2],Inactive
Fc1cc(F)c2[nH]cc(-c3ccc4cccc(F)c4n3)c2c1 [Compound 13695],IC50,androgen receptor (AR); [5],69 nM
same,IC50,PSA; [6],87 nM
c1ccc2ncc(-c3c[nH]c4ccncc34)cc2c1 [13 637],IC50 (eGFP),"androgen receptor (AR); LN-ARR2PB-eGFP LNCaP cells, 0.1 nM R1881, 3 days, 0-100 μM compound",IC50 (eGFP) = Inactive
same,IC50 (PSA),PSA; media after 3 days,IC50 (PSA) = Inactive
c1ccc2ncc(-c3n[nH]c4ccccc34)cc2c1 [Compound 13684],IC50,androgen receptor (AR); [5],1400 nM
same,IC50,PSA; [6],6610 nM
c1ccc2nc(-c3c[nH]c4ccccc34)ccc2c1 [13 562],IC50,androgen receptor (AR); [3],60 nM
same,IC50,PSA; [4],140 nM
Brc1cccc2c(-c3ccc4ccccc4n3)c[nH]c12 [Compound 13582],IC50,androgen receptor (AR); [5],52 nM
same,IC50,PSA; [6],41 nM
CC1(C)c2ccccc2NC1c1c[nH]c2c(CO)cccc12 (stereo not shown) [Compound 13558],IC50,androgen receptor (AR); [5],1600 nM
same,IC50,PSA; [6],2100 nM
CCOC(=O)CN1c2ccccc2C(C)(C)C1c1c[nH]c2ccccc12 (stereo not shown) [Compound 13532],IC50,androgen receptor (AR); [5],2800 nM
same,IC50,PSA; [6],3100 nM
Cc1cc(-c2c[nH]c3c(C)c(F)ccc23)nc2ccccc12 [Compound 13659],eGFP IC50,androgen receptor (AR); [1],Inactive
same,PSA IC50,PSA; [2],Inactive
c1ccc2ncc(-c3c[nH]c4ccncc34)cc2c1 [Compound 13637],eGFP IC50,androgen receptor (AR); [1],Inactive
same,PSA IC50,PSA; [2],Inactive
CC1(C)c2cc(Br)ccc2NC1c1cn(S(=O)(=O)C[C@]23CC[C@@H](CC2=O)C3(C)C)c2ccccc12 (stereo partly shown) [Compound 13524],IC50,androgen receptor (AR); [5],4900 nM
same,IC50,PSA; [6],6650 nM
C(=C\c1c[nH]c2ccccc12)/c1ccccc1 [Compound 13235],IC50,androgen receptor (AR); [5],2200 nM
same,IC50,PSA; [6],1010 nM
Cc1c(F)ccc2c(-c3ccc4c(F)cccc4n3)c[nH]c12 [Compound 13631],eGFP IC50,androgen receptor (AR); [1],Inactive
same,PSA IC50,PSA; [2],Inactive
COc1cccc2c(-c3cc(C)c4ccccc4n3)c[nH]c12 [13 554],IC50,androgen receptor (AR); [3],600 nM
same,IC50,PSA; [4],670 nM
Cc1cc(F)c2[nH]cc(-c3ccc4ccccc4n3)c2c1 [Compound 13612],IC50,androgen receptor (AR); [5],1440 nM
same,IC50,PSA; [6],813 nM
COc1ccc2[nH]cc(C3Nc4ccccc4C3(C)C)c2c1 (stereo not shown) [13 536],IC50,androgen receptor (AR); [3],2200 nM
same,IC50,PSA; [4],2520 nM
Brc1ccc2c(-c3ccc4ccccc4n3)c[nH]c2c1 [13 568],IC50,androgen receptor (AR); [3],1300 nM
same,IC50,PSA; [4],1560 nM
